Where two headings read alike, the source gives them in different places.
Experiments:
[1] = Mouse Fast PK/BBB (plasma and brain concentration); type: in vivo; details: male, C57bl/6j, oral, N=3 (dose given as 30 mg/kg and 20 mg/kg)
Excerpt: Male Sprague Dawley rats were ordered from Charles River (225-250 gm upon arrival). They were fed standard chow diet (Purina 5001) and housed 2 per cage. Male C57bl/6j mice were ordered from Charles River at 22-25 g and housed 3 per cage. They were fed standard chow (Purina 5001). All animals were housed in a temperature-controlled room with 12-hour light/dark cycle. Animals were given food and water ad libitum, except as noted.
Test compounds were formulated in 10% PEG400 and 10% solutol. Test compounds were administered by oral gavage (5 ml kg^−1).
Male C57bl/6j mice were dosed with test compounds at 30 mg/kg. Plasma was collected via retro-orbital bleeding at 1 hr and 4 hrs after dosing. Whole brain without cerebellum was collected at 4 hrs after dosing. Wet brain weight was recorded before freezing. Brains were homogenized in saline and sent for analysis for determination of concentration of test compound.
Table BIO-3 below present results for representative compounds of the present invention, tested according to the procedure as described above. Each compound was tested in three animals (N=3) and administered PA at 20 mg/kg

[2] = target: Human CB1R (Cannabinoid receptor 1) (Homo sapiens (Human), UniProt P21554); test: CB-1 in vitro cAMP assay (HTRF), inverse agonism; type: cell-based; details: mean where tested more than once
Human CB1R (Cannabinoid receptor 1), sequence (P21554 whole entry): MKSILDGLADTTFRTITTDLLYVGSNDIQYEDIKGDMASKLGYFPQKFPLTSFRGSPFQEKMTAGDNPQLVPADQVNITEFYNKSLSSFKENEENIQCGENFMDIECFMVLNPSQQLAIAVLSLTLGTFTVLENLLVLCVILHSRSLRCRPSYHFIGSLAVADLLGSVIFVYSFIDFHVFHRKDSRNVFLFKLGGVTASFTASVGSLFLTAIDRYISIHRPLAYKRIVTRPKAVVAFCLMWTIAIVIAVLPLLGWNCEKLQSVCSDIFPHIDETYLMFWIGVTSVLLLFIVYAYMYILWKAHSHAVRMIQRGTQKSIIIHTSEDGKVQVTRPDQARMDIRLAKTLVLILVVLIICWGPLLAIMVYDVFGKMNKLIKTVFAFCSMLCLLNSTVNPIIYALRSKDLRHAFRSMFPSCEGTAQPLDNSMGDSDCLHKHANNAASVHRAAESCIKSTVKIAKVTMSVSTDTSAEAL

[3] = target: Human CB2R (Cannabinoid receptor 2) (Homo sapiens (Human), UniProt P34972); test: CB-2 in vitro cAMP assay (HTRF), inverse agonism; type: cell-based; details: mean where tested more than once
Human CB2R (Cannabinoid receptor 2), sequence (P34972 whole entry): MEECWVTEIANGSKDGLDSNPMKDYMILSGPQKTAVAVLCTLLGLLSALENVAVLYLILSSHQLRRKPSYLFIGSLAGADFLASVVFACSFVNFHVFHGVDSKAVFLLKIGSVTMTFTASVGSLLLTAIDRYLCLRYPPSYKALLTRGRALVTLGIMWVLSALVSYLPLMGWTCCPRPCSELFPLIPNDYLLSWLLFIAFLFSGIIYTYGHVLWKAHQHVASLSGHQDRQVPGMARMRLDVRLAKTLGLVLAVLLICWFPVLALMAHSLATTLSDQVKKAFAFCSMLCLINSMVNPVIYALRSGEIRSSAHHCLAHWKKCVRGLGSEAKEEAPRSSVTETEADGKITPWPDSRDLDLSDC

[4] = Mouse Fast PK/BBB (plasma and brain concentration); type: in vivo; details: oral, N=3 (dose given as 30 mg/kg and 20 mg/kg)
[5] = brain, read-out: BRAIN Mean Conc. ± Std. Dev
[6] = plasma, read-out: PLASMA Mean Conc. ± Std. Dev

SMILES | concentration at 4 h [1, 5] | concentration at 1 h [1, 6] | concentration at 4 h [1, 6] | EC50 [2] | EC50 [3] | concentration at 1 h ([4]; male, C57bl/6j, brain, read-out: BRAIN Mean Conc. ± Std. Dev) | BRAIN Mean Conc. ± Std. Dev ([4]; 1 hr)
O=c1cc(NC2CCN(S(=O)(=O)C(F)(F)F)CC2)c2cc(C(c3ccc(Cl)cc3)c3nccs3)ccc2[nH]1 (centres unmarked) [Compound #41, 6-((4-chlorophenyl)(thiazol-2-yl)methyl)-4-((1-((trifluoromethyl)sulfonyl)piperidin-4-yl)amino)quinolin-2(1H)-one] | 0 ng/mL | 714 ± 188 ng/mL | 291 ± 90.5 ng/mL | 15 nM | 8.15 µM | 7.43 ng/mL | –
O=c1cc(Nc2ccc(C(F)(F)F)cc2)c2cc(C(c3ccc(Cl)cc3)c3ccc(Cl)cc3)ccc2[nH]1 [Compound #59, 6-(bis(4-chlorophenyl)methyl)-4-((4-(trifluoromethyl)phenyl)amino)quinolin-2(1H)-one] | 59.7 ± 9.55 ng/mL | 2320 ± 1020 ng/mL | 1610 ± 563 ng/mL | 7 nM | > 10 µM | – | BLOQ ± NA
O=c1cc(NC2CCN(S(=O)(=O)C(F)(F)F)CC2)c2cc(C(c3ccc(Cl)cc3)c3ccc(Cl)nc3)ccc2[nH]1 (centres unmarked) [Compound #72, 6-[(4-chlorophenyl)(6-chloropyridin-3-yl)methyl]-4-[[1-(trifluoromethane)sulfonylpiperidin-4-yl]amino]-1,2-dihydroquinolin-2-one] | – | – | – | 11 nM | 6.6 µM | – | –
O=c1cc(NC2CCN(CC(F)(F)F)CC2)c2cc(C(c3ccc(Cl)cc3)c3ccc(Cl)cc3)ccc2[nH]1 [Compound #77, 6-(bis(4-chlorophenyl)methyl)-4-((1-(2,2,2-trifluoroethyl)piperidin-4-yl)amino)quinolin-2(1H)-one] | – | – | – | 3 nM | > 10 µM | – | –
O=c1cc(NC2CCN(S(=O)(=O)C(F)(F)F)CC2)c2cc(C(Cc3ccc(F)cc3)c3ccc(Cl)cc3)ccc2[nH]1 (centres unmarked) [Compound #135, 6-(1-(4-chlorophenyl)-2-(4-fluorophenyl)ethyl)-4-((1-((trifluoromethyl)sulfonyl)piperidin-4-yl)amino)quinolin-2(1H)-one] | – | – | – | 1100 nM | 6.81 µM | – | –
O=c1cc(NC2CCN(S(=O)(=O)C(F)(F)F)CC2)c2cc(C(Oc3ccc(Cl)cc3)c3ccc(Cl)cc3)ccc2[nH]1 (centres unmarked) [Compound #136, 6-[4-chlorophenoxy(4-chlorophenyl)methyl]-4-[[1-(trifluoromethane)sulfonylpiperidin-4-yl]amino]-1,2-dihydroquinolin-2-one] | – | – | – | 122 nM | > 10 µM | – | –

Source: patent US9266835B2, “Quinoline derivatives useful as CB-1 inverse agonists” (JANSSEN PHARMACEUTICA NV, priority 2014, dated 2016)
